Data as given in patent publication US9440930B2, “Substituted bicyclic dihydropyrimidinones and their use as inhibitors of neutrophil elastase activity” (Boehringer Ingelheim International GmbH, priority 2014, dated 2016).
pIC50: −log10 of the molar value.

How the values were obtained:
[1] = target: T1, Human neutrophil elastase (Homo sapiens, UniProt P08246); assay: Human Neutrophil Elastase Assay; assay type: biochemical; settings: substrate MeOSuc-Ala-Ala-Pro-Val-AMC 250 μM, pH 7.5, room temperature
T1 construct: purchased Calbiochem 324681
T1 sequence (P08246 30-247 limits assumed): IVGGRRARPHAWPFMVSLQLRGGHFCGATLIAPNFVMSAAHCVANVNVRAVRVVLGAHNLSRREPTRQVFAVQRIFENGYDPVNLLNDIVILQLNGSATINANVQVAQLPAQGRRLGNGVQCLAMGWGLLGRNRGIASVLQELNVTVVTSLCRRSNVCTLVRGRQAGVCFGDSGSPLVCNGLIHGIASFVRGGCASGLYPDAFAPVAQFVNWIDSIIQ
Excerpt: Human Neutrophil Elastase Assay

[2] = Metabolic stability with human liver microsomes; assay type: in vitro ADME; settings: pooled human liver microsomes, pH 7.6; human liver microsomes 1 mg/ml, 1 μM compound, 37° C., NADPH; read-out: t1/2 INVITRO
[3] = target: T2, cytochrome P450 2C8 (Homo sapiens, UniProt P10632); assay: Cytochrome P450 2C8 inhibition; assay type: in vitro ADME; settings: human liver microsomes, Amodiaquine deethylation
T2 construct: is assayed at 37° C. with human liver microsomes; from tissue; host or cells: human liver microsomes
T2 sequence (P10632 1-490): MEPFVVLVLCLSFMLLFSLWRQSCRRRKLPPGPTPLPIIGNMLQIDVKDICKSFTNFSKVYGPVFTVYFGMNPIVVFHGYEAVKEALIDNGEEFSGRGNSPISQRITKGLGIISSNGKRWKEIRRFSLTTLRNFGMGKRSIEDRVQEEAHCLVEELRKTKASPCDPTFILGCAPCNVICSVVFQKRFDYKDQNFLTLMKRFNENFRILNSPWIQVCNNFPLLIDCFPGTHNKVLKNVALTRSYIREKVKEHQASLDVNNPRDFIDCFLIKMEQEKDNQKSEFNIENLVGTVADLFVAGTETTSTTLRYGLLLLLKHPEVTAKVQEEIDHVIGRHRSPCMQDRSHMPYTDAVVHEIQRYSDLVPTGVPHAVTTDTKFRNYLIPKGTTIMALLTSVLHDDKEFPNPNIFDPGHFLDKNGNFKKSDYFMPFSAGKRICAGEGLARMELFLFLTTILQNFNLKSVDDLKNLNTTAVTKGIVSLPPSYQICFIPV
Excerpt: Assay for Determination of Cytochrome P450 2C8 Inhibition

[4] = Drug transport across human Caco-2 cells; assay type: in vitro ADME; settings: pH 7.2, 37° C.
Excerpt: Assay for Determination of Drug Transport Across Human Caco-2 Cells
The assay provides information on the potential of a compound to pass the cell membrane, on the extent of oral absorption as well as on whether the compound is actively transported by uptake and/or efflux transporters. For the measurement of permeability across polarized, confluent human cancer colon carcinoma cells 2 (Caco-2) cell monolayers grown on permeable filter supports are used as the in vitro absorption model.
Apparent permeability coefficients (PE) of the compounds across the Caco-2 monolayers are measured (pH 7.2, 37° C.) in apical-to-basal (AB) (absorptive) and basal-to-apical (BA) (secretory) transport direction. AB permeability (PEAB) represents drug absorption from the intestine into the blood and BA permeability (PEBA) drug secretion from the blood back into the intestine via both passive permeability as well as active transport mechanisms mediated by efflux and uptake transporters that are expressed on the Caco-2 cells. The compounds are assigned to permeability/absorption classes by comparison of the AB permeabilities with the AB permeabilities of reference compounds with known in vitro permeability and oral absorption in the human. Identical or similar permeabilities in both transport directions indicate passive permeation, vectorial permeability points to additional active transport mechanisms. […] Active transport is concentration-dependently saturable.
Caco-2 cells (1-2*10^5 cells/cm^2 area) are seeded on filter inserts (Costar transwell polycarbonate or PET filters, 0.4 μm pore size) and cultured (DMEM) for 10 to 25 days. Compounds are dissolved in appropriate solvent (like DMSO, 1-20 min stock solutions). Stock solutions are diluted with HTP-4 buffer (128.13 min NaCl, 5.36 min KCl, 1 mM MgSO4, 1.8 min CaCl2, 4.17 min NaHCO3, 1.19 min Na2HPO4×7H2O, 0.41 mM NaH2PO4×H2O, 15 min HEPES, 20 min glucose, pH 7.2) to prepare the transport solutions (typically 10 μM compound, final DMSO<=0.5%). The transport solution (TL) is applied to the apical or basolateral donor side for measuring A-B or B-A permeability (3 filter replicates), respectively. The receiver side contains HTP-4 buffer supplemented with 2% BSA. Samples are collected at the start and end of experiment from the donor and at various time intervals for up to 2 hours also from the receiver side for concentration measurement by LC-MS/MS or scintillation counting. Sampled receiver volumes are replaced with fresh receiver solution.

Q: What does the source list for CN1C(=O)N(c2cccc(C(F)(F)F)c2)C2=C(C(=O)CCC2)[C@H]1c1ccc(C#N)cc1[S+](C)[O-] (single isomer, unassigned) [Example 2.2A, 3-Methanesulfinyl-4-[3-methyl-2,5-dioxo-1-(3-trifluoromethyl-phenyl)-1,2,3,4,5,6,7,8-octahydro-quinazolin-4-yl]-benzonitrile]?
A: pIC50 [1]: > 9.00; half-life at 1 μM [2]: > 2.17 h; pIC50 [3]: < 4.30; Papp A→B at 10 µM ([4]; apical-to-basal, read-out: PEAB): 190 nm/s; Papp B→A at 10 µM ([4]; basal-to-apical, read-out: PEBA): 970 nm/s
